From patent US20250204535A1, “Rodenticide” (priority 2022, published 2025)
Where no end group is shown, it is not given here.

What was measured:
[1] = Caco-2 permeability assay (bi-directional); conditions: human; for recovery at 120 min / recovery at 120 min, 100 μM: Caco-2, pH 7.4, Mean % Recovery; for recovery at 120 min: positive control
Description: (§1) Cells were seeded on to Millipore Multiscreen Transwell plates at 1×10^5 cells/cm^2. The cells were cultured in DMEM and media was changed every two or three days. On day 20, the permeability study was performed. […] On the day of the assay, the monolayers were prepared by rinsing both basolateral and apical surfaces twice with Hanks Balanced Salt Solution (HBSS) at the desired pH warmed to 37° C. Cells were then incubated with HBSS at the desired pH in both apical and basolateral compartments for 40 min to stabilise physiological parameters.
(§2) The fluorescent integrity marker lucifer yellow was also included in the dosing solution. Analytical standards were prepared from test compound water dilutions and transferred to buffer, maintaining a ≤1% v/v water concentration. Assay buffer was composed of supplemented HBSS pH 7.4.
(§3) For assessment of apical to basolateral (A2B) permeability, HBSS was removed from the apical compartment and replaced with test compound dosing solution. The apical compartment insert was then placed into a companion plate containing fresh buffer (containing ≤1% v/v Water). For assessment of B2A permeability, HBSS was removed from the companion plate and replaced with test compound dosing solution. Fresh buffer (containing ≤1% v/v Water) was added to the apical compartment insert, which was then placed into the companion plate.
(§4) At 120 min, the apical compartment inserts and the companion plates were separated, and apical and basolateral samples diluted for analysis. Test compound permeability was assessed in duplicate. Compounds of known permeability characteristics were run as controls on each assay plate.
(§5) Test and control compounds were quantified by LC-MS/MS cassette analysis using a 7-point calibration with appropriate dilution of the samples. Cyprotex generic analytical conditions were used. The starting concentration (CO) was determined from the dosing solution and the experimental recovery calculated from CO and both apical and basolateral compartment concentrations.
(§6) The integrity of the polarised cell monolayers throughout the experiment was checked by monitoring lucifer yellow permeation using fluorometric analysis. Permeation of this paracellular marker is low if monolayers have not been damaged. […] If this was not the case, then the result from the affected monolayer was excluded.
(§7) The determined concentration (nM≡pmol/mL) of each test sample receiver well is multiplied by the volume of the receiver compartment (apical=0.09 mL, basolateral=0.210 mL) to calculate the amount (pmol) of probe substrate permeating the monolayer.
(§8) Where dQ/dt is the rate of permeation of the drug across the cells, C0 is the donor compartment concentration at time zero and A is the area of the cell monolayer. C0 was obtained from analysis of the dosing solution.
(§9) An efflux ratio (ER) was calculated from mean A to B and B to A data. This is derived from:
(§10) Percentage recovery (mass balance) of the test compound or positive control substrate was calculated by dividing the sum of the amount (pmol) in the receiver and donor compartments post-incubation by the amount in the initial donor solution at time zero (C0) and expressing as a percentage.
(§11) The insert was inserted into the well of a plate to form an Apical chamber (above cells) and basolateral chamber (below cells), with a permeable membrane between the two layers. Compound was then added to either the apical or basolateral chamber and the passage of it monitored into the other chamber. Transfer of the test compound from the apical to basolateral chamber was indicative of cellular uptake, simulating transition of the compound from the intestinal lumen to the bloodstream by uptake receptors (Direction A). […] An Efflux ratio was then calculated from the values obtained for A2B and B2A transmission.

Caco-2 cells = test: Caco-2 permeability assay (bi-directional); conditions: for Papp Rep 1 / Papp Rep 2 / Papp Mean: 120 min, pH 7.4
Description: as §1, §2, §3, §4, §5, §6, §7, §8, §9, §10, §11

[2] = known characteristic of control compound; cited from earlier work
[3] = tested on: Human IPSC-derived cardiomyocytes; test: Screening synthetic peptides for alterations to human IPSC-derived cardiomyocyte beat rates; type: cell-based; conditions: 2 h; dose not stated in the sentence (no increase at 0.1, 1 and 10 μg/ml)
Description: (§12) The baseline beat rate of neonatal rat and human IPSC-derived cardiomyocytes to be treated with the three synthetic fractions were determined by video microscopy of each well in triplicate using a microscope camera. Average beats/min were calculated from the triplicate readings of three separate wells (n=9). Aliquots of each peptide were taken to treat neonatal rat cardiomyocyte cells at doses of 100, 10, 1 and 0.1 μg/ml. Cells were returned to a humidified incubator at 37° C., 5% CO2 for 2 h. After 2 h the beat rate of the treated cardiomyocyte cells was reassessed using the same method used to obtain the pre-dosing beat data. This process was repeated 24 h after the addition of the synthetic peptides.

[4] = tested on: Neonatal rat cardiomyocytes; test: Screening synthetic peptides for alterations to rat cardiomyocyte beat rates; type: cell-based
Description: as §12

[5] = tested on: Neonatal rat cardiomyocytes; test: Screening synthetic peptides for thermal stability (rat cardiomyocyte beat rate after heating at 100° C.); type: cell-based; conditions: peptide heated to 100° C.
Description: Thermal stability of the three designed synthetics peptides was investigated. The baseline beat rate of neonatal rat cardiomyocytes to be treated with the synthetic fractions were determined by video microscopy of each well in triplicate using a microscope camera. Average beats/min were calculated from the triplicate readings of three separate wells (n=9). Aliquots of each peptide were heated in a heat block at 100° C. before being used to treat rodent cardiomyocyte cells at doses of 100, 10, 1 and 0.1 μg/ml. Cells were returned to the incubator at 37° C., 5% CO2 for 2 h. After 2 h the beat rate of the treated cardiomyocyte cells was reassessed using the same method used to obtain the pre-dosing beat data. This process was repeated 24 h after the addition of the synthetic peptides. The data of the fold changes in cardiomyocyte beat rate following treatment with the heated synthetic fractions were compared to previously obtains fold-changes in beat rate of the unheated synthetic peptides to assess their thermal stability.

Which Papp A→B at 120 min ([1]; Caco-2, pH 7.4) does the source give for Cc1cc(=O)n(-c2ccccc2)n1C [Antipyrine, antipyrine] here?
Its Papp A→B at 120 min is 47.1 ×10⁻⁶ cm/s.

What about the Papp B→A at 120 min ([1]; Caco-2, pH 7.4) of the same compound?
Its Papp B→A at 120 min is 39.6 ×10⁻⁶ cm/s.

And the efflux ratio at 120 min ([1]; Caco-2, pH 7.4)?
The efflux ratio at 120 min was 0.84.

And the recovery at 120 min ([1]; A2B)?
Its recovery at 120 min is 90.5%.

What about the recovery at 120 min ([1]; B2A) of the same compound?
The recovery at 120 min was 87.8%.

And the “Papp Rep 1” value (Caco-2 cells; A2B, positive control)?
Its value is 47.2 ×10^−6 cms^−1.

And the “Papp Rep 2” value (Caco-2 cells; A2B, positive control)?
The value was 46.9 ×10^−6 cms^−1.

What about the “Papp Rep 1” value (Caco-2 cells; B2A, positive control) of the same compound?
Its value is 38.0 ×10^−6 cms^−1.

And the “Papp Rep 2” value (Caco-2 cells; B2A, positive control)?
The value was 41.1 ×10^−6 cms^−1.

And the human absorption [2]?
Its human absorption is 97%.

With LKCHKLVPPVWKT [Synthetic peptide 1] as the compound, how does the “increase to the beat rate of human cardiomyocytes over pre-dosing beat rate” value [3] read?
Its value is 1.5 fold.

And the efflux ratio at 120 min, 100 μM ([1]; Caco-2, pH 7.4)?
Its efflux ratio at 120 min, 100 μM is 0.137.

What about the recovery at 120 min, 100 μM ([1]; A2B) of the same compound?
The recovery at 120 min, 100 μM was 45.5%.

What about the recovery at 120 min, 100 μM ([1]; B2A) of the same compound?
Its recovery at 120 min, 100 μM is 96.6%.

And the “toxicity to the Caco-2 cells (lucifer yellow monolayer integrity)” value (Caco-2 cells; 100 μM)?
The value was “not observed”.

What about the “transporter substrate assessment from the efflux ratio” value (Caco-2 cells; 100 μM, efflux ratio 0.137) of the same compound?
Its value is “not a substrate for efflux transporters but could be a possible substrate for uptake transporters”.

And the “Papp Mean” value (Caco-2 cells; A2B, 100 μM)?
Its value is 4.60 ×10^−6 cms^−1.

And the “Papp Rep 1” value (Caco-2 cells; A2B, 100 μM)?
Its value is 6.48 ×10^−6 cms^−1.

And the “Papp Rep 2” value (Caco-2 cells; A2B, 100 μM)?
The value was 2.73 ×10^−6 cms^−1.

And the “Papp Mean” value (Caco-2 cells; B2A, 100 μM)?
The value was 0.633 ×10^−6 cms^−1.

And the “Papp Rep 1” value (Caco-2 cells; B2A, 100 μM)?
Its value is 0.681 ×10^−6 cms^−1.

What about the “Papp Rep 2” value (Caco-2 cells; B2A, 100 μM) of the same compound?
The value was 0.584 ×10^−6 cms^−1.

With LKCHKLIPIAWKTK [Synthetic peptide 3] as the compound, how does the “fold-increases to beat rate, rat cardiomyocytes” value ([4]; 100 μg/ml, 2 h) read?
Its value is “three-fold”.

And the “peak increases in rat neonatal cardiomyocyte beat rates” value ([4]; peak over 0.1-100 μg/ml)?
Its value is 3 fold.

And the “increases to beat rate, rat cardiomyocytes” value ([4]; three lower tested concentrations, 2 h)?
The value was “around two-fold”.

What about the “maximum fold-increase to beat rate following heating” value [5] of the same compound?
Its value is 2.5 fold.
